Reference: patent US9340590B2 (priority 2011, dated 2016)
Where two headings read alike, the source gives them in different places. Positions of bridges follow the written chain, without caps; N, C: chain ends. Residues, ends and D or L forms follow the SMILES beside them.

What was measured:
Assay in all cases: cell-based
hNav1.7 = hNav1.7 (Homo sapiens, UniProt Q15858); assay type: cell-based; conditions: IonWorks Quattro
hNav1.5 = hNav1.5 (Homo sapiens, UniProt Q14524)
hNav1.3 = hNav1.3 (Homo sapiens, UniProt Q9NY46); conditions: IonWorks Quattro, read-out: IWQ Use Nav1.3
Chain of hNav1.3 (Q9NY46 whole entry, looked up): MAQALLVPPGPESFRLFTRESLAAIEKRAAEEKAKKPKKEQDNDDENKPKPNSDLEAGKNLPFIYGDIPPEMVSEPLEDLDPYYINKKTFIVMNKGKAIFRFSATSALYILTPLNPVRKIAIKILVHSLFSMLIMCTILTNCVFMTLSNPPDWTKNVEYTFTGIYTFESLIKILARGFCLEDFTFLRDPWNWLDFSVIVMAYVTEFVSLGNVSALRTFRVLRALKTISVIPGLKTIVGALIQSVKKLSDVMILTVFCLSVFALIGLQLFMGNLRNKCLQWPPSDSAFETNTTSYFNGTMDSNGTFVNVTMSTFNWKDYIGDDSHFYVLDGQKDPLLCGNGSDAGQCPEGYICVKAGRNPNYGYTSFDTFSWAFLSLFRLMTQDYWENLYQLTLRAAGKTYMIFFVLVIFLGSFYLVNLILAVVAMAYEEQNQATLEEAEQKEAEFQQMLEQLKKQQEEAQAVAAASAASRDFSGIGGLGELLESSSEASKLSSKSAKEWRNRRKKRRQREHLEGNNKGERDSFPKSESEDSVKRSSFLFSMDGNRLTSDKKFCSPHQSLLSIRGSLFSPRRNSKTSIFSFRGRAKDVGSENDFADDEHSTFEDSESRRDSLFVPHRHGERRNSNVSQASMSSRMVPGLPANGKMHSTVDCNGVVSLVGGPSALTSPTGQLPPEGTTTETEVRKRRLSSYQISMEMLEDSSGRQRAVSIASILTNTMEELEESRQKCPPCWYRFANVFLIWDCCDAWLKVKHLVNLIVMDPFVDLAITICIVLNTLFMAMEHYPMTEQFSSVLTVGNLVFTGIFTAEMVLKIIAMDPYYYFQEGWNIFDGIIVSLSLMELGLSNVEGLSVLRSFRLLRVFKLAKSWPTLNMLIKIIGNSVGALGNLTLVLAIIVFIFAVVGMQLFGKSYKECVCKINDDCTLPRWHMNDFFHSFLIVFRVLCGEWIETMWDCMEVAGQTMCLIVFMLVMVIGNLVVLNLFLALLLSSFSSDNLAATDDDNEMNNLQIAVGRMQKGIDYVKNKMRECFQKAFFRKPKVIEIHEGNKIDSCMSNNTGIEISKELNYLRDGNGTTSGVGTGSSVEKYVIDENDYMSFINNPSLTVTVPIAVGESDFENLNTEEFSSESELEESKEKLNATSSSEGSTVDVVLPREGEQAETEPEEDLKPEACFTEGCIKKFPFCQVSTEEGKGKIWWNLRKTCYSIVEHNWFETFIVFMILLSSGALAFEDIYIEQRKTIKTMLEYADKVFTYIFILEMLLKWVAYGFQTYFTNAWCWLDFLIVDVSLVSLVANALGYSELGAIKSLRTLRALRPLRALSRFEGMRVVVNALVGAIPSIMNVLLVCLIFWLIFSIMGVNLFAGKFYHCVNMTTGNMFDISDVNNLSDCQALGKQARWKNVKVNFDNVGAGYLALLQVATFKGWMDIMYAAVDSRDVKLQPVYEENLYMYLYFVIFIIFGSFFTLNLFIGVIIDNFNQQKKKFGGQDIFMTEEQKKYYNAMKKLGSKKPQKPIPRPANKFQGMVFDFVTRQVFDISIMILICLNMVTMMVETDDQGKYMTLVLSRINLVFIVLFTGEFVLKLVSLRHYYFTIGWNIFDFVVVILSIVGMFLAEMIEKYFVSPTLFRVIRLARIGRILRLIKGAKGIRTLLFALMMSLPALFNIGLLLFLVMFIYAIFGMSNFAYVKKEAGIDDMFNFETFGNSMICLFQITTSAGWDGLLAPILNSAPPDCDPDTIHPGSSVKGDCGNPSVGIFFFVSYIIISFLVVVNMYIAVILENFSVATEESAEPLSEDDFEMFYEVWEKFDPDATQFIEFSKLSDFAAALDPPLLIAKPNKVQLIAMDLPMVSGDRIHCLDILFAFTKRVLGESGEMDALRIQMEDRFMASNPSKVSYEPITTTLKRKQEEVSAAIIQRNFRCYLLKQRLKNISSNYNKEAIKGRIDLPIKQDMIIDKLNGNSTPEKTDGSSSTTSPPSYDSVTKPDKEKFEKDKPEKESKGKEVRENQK

[1] = use-dependent protocol, hNav1.7, read-out: IWQ Use Nav1.7
[2] = IonWorks Quattro, use-dependent protocol, hNav1.5, read-out: IWQ Use Nav1.5
[3] = use-dependent protocol, hNav1.3
[4] = clamped to −110 mV, depolarized to −10 mV, 5 min after compound, n=2, read-out: IWQ Use Nav1.7
[5] = clamped to −110 mV, depolarized to −10 mV, 5 min after compound, n=2

Chain of hNav1.7 (Q15858 whole entry, looked up): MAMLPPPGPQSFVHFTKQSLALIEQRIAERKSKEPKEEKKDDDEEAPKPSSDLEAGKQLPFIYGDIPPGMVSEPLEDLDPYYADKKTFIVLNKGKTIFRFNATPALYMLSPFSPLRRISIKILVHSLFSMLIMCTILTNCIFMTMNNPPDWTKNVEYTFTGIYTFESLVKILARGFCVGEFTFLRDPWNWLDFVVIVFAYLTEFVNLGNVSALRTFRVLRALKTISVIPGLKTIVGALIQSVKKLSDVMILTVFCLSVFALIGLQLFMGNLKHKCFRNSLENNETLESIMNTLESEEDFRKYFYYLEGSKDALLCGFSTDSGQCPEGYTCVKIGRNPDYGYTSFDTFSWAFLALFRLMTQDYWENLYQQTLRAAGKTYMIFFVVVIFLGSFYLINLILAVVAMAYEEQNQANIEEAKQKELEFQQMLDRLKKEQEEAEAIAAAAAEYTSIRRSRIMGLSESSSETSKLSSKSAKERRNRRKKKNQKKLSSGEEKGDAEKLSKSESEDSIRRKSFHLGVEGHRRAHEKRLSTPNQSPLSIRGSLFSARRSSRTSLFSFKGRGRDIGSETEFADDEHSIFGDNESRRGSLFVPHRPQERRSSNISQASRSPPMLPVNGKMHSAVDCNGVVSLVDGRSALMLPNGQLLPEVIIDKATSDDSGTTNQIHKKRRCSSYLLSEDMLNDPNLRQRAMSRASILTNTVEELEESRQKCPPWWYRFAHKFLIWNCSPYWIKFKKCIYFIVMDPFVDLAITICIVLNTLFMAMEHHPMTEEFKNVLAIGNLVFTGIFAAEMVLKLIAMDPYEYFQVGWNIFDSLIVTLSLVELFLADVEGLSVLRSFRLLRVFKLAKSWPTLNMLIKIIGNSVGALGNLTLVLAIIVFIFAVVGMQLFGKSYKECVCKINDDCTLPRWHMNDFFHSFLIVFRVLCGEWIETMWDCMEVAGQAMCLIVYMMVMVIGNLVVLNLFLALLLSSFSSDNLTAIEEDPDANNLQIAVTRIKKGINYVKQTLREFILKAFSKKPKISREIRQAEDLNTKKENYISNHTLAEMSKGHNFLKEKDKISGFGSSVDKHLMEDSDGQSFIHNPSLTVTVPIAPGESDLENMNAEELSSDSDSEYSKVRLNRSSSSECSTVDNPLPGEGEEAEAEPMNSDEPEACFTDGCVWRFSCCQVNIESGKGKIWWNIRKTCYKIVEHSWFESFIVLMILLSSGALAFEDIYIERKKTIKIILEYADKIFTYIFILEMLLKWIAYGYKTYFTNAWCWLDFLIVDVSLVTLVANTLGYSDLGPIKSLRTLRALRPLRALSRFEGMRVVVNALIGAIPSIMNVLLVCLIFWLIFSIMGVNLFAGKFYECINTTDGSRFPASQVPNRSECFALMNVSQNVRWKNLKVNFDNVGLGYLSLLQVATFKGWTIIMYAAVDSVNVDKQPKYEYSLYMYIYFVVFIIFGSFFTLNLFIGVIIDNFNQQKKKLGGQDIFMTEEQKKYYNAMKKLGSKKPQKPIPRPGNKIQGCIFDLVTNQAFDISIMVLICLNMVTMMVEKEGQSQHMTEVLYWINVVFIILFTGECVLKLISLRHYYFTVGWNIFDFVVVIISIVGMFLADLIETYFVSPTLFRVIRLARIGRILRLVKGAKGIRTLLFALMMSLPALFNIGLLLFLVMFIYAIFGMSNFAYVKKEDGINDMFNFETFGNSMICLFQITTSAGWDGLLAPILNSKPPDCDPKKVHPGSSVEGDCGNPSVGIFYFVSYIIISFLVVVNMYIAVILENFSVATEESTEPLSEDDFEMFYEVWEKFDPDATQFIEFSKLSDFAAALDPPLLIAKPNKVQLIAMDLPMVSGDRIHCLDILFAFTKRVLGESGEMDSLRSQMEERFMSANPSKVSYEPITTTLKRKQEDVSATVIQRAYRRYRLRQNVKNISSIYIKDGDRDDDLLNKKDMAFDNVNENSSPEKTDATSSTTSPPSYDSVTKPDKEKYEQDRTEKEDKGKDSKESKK

Molecule `CC[C@H](C)[C@@H]1NC(=O)[C@@H]2CSSC[C@@H]3NC(=O)[C@H](C(C)C)NC(=O)[C@H](CC(C)C)NC(=O)[C@H](CC(N)=O)NC(=O)[C@@H]4CCCN4C(=O)[C@H](CCCNC(=N)N)NC(=O)[C@H](CSSC[C@H](NC(=O)[C@@H](N)CC(=O)O)C(=O)N[C@@H](CC(C)C)C(=O)NCC(=O)N[C@@H](C(C)C)C(=O)N[C@@H](CCSC)C(=O)N[C@@H](CCCNC(=N)N)C(=O)N[C@@H](CCCCN)C(=O)N2)NC(=O)[C@H](CSSC[C@@H](C(=O)N[C@@H](CCCCN)C(=O)N[C@@H](Cc2ccc(O)cc2)C(=O)N[C@H](C(=O)N[C@@H](Cc2ccccc2)C(N)=O)C(C)C)NC(=O)[C@H](Cc2c[nH]c4ccccc24)NC(=O)[C@H](CCCCN)NC(=O)[C@H](Cc2c[nH]cn2)NC(=O)[C@H]([C@@H](C)O)NC(=O)[C@H](CCCNC(=N)N)NC(=O)[C@H](CO)NC3=O)NC(=O)[C@H](CCCCN)NC(=O)[C@H](CC(=O)O)NC(=O)[C@H](CC(N)=O)NC(=O)[C@H](CCC(=O)O)NC(=O)[C@@H]2CCCN2C1=O` [compound 711] (H-DCLGVMRKCIPENDKCCRPNLVCSRTHKWCKYVF-NH2; disulfide 2-17, 9-23, 16-30) has an IC50 (hNav1.7; [1]) of 480 nM, an IC50 (hNav1.5; [2]) of 26000 nM and an IC50 (hNav1.3; [3]) of 750 nM.

For `CC[C@H](C)[C@@H]1NC(=O)[C@@H]2CSSC[C@@H]3NC(=O)[C@H](C(C)C)NC(=O)[C@H](CC(C)C)NC(=O)[C@H](CC(N)=O)NC(=O)[C@@H]4CCCN4C(=O)[C@H](CCCNC(=N)N)NC(=O)[C@H](CSSC[C@H](NC(=O)[C@@H](N)CC(=O)O)C(=O)N[C@@H](CC(C)C)C(=O)NCC(=O)N[C@@H](Cc4ccccc4)C(=O)N[C@@H](CCSC)C(=O)N[C@@H](CCCNC(=N)N)C(=O)N[C@@H](CCCCN)C(=O)N2)NC(=O)[C@H](CSSC[C@@H](C(=O)N[C@@H](CCCCN)C(=O)N[C@@H](Cc2ccc(O)cc2)C(=O)N[C@H](C(=O)N[C@@H](Cc2ccccc2)C(=O)N[C@@H](Cc2ccc(C(=O)O)cc2)C(N)=O)C(C)C)NC(=O)[C@H](Cc2c[nH]c4ccccc24)NC(=O)[C@H](CCCCN)NC(=O)[C@H](Cc2c[nH]cn2)NC(=O)[C@H]([C@@H](C)O)NC(=O)[C@H](CCCNC(=N)N)NC(=O)[C@H](CO)NC3=O)NC(=O)[C@H](CCCCN)NC(=O)[C@H](CC(=O)O)NC(=O)[C@H](CC(N)=O)NC(=O)[C@H](CC(=O)O)NC(=O)[C@@H]2CCCN2C1=O` [compound 413], the IC50 (hNav1.7; use-dependent, […], read-out: IWQ Use Nav1.7 (μm)) was 1150 nM, the IC50 (hNav1.5; IonWorks Quattro, use-dependent, […], read-out: IWQ Use Nav1.5) was 8650 nM and the IC50 (hNav1.3; use-dependent, […]) was 5350 nM.

For `CC[C@H](C)[C@@H]1NC(=O)[C@@H]2CSSC[C@@H]3NC(=O)[C@H](C(C)C)NC(=O)[C@H](CC(C)C)NC(=O)[C@H](CC(N)=O)NC(=O)[C@@H]4CCCN4C(=O)[C@H](CCCNC(=N)N)NC(=O)[C@H](CSSC[C@H](NC(=O)[C@@H](N)CC(=O)O)C(=O)N[C@@H](CC(C)C)C(=O)NCC(=O)N[C@@H](Cc4cccc5ccccc45)C(=O)N[C@@H](CCSC)C(=O)N[C@@H](CCCNC(=N)N)C(=O)N[C@@H](CCCCN)C(=O)N2)NC(=O)[C@H](CSSC[C@@H](C(=O)N[C@@H](CCCCN)C(=O)N[C@@H](Cc2ccc(O)cc2)C(=O)N[C@H](C(=O)N[C@@H](Cc2ccccc2)C(N)=O)C(C)C)NC(=O)[C@H](Cc2c[nH]c4ccccc24)NC(=O)[C@H](CCCCN)NC(=O)[C@H](Cc2c[nH]cn2)NC(=O)[C@H]([C@@H](C)O)NC(=O)[C@H](CCCNC(=N)N)NC(=O)[C@H](CO)NC3=O)NC(=O)[C@H](CCCCN)NC(=O)[C@H](CC(=O)O)NC(=O)[C@H](CC(N)=O)NC(=O)[C@H](CC(=O)O)NC(=O)[C@@H]2CCCN2C1=O` [SEQ ID NO: 105], the IC50 (hNav1.7; [4]) was 80 nM, the IC50 (hNav1.5; IWQ Use Nav1.5) was 13400 nM and the IC50 (hNav1.3; [5]) was 100 nM.

`CC[C@H](C)[C@@H]1NC(=O)[C@@H]2CSSC[C@@H]3NC(=O)[C@H](C(C)C)NC(=O)[C@H](CC(C)C)NC(=O)[C@H](CC(N)=O)NC(=O)[C@@H]4CCCN4C(=O)[C@H](CCCNC(=N)N)NC(=O)[C@H](CSSC[C@H](NC(=O)[C@@H](N)CC(=O)O)C(=O)N[C@@H](CC(C)C)C(=O)NCC(=O)N[C@@H](Cc4ccc(Cl)c(Cl)c4)C(=O)N[C@@H](CC(C)C)C(=O)N[C@@H](CCCNC(=N)N)C(=O)N[C@@H](CCCCN)C(=O)N2)NC(=O)[C@H](CSSC[C@@H](C(=O)N[C@@H](CCCCN)C(=O)N[C@@H](Cc2ccc(O)cc2)C(=O)N[C@H](C(=O)N[C@@H](Cc2ccccc2)C(N)=O)C(C)C)NC(=O)[C@H](Cc2c[nH]c4ccccc24)NC(=O)[C@H](CCCCN)NC(=O)[C@H](Cc2c[nH]cn2)NC(=O)[C@H]([C@@H](C)O)NC(=O)[C@H](CCCNC(=N)N)NC(=O)[C@H](CO)NC3=O)NC(=O)[C@H](CCCCN)NC(=O)[C@H](CC(=O)O)NC(=O)[C@H](CC(N)=O)NC(=O)[C@H](CC(=O)O)NC(=O)[C@@H]2CCCN2C1=O` [compound 666] gave an IC50 (hNav1.7; [1]) of 29 nM, an IC50 (hNav1.5; [2]) of 4500 nM and an IC50 (hNav1.3; [3]) of 16 nM.

`CC[C@H](C)[C@@H]1NC(=O)[C@@H]2CSSC[C@@H]3NC(=O)[C@H](C(C)C)NC(=O)[C@H](CC(C)C)NC(=O)[C@H](CC(N)=O)NC(=O)[C@@H]4CCCN4C(=O)[C@H](CCCNC(=N)N)NC(=O)[C@H](CSSC[C@H](NC(=O)[C@@H](N)CC(=O)O)C(=O)N[C@@H](CC(C)C)C(=O)NCC(=O)N[C@@H](Cc4ccccc4)C(=O)N[C@@H](CCSC)C(=O)N[C@@H](CCCNC(=N)N)C(=O)N[C@@H](CCCCN)C(=O)N2)NC(=O)[C@H](CSSC[C@@H](C(=O)N[C@@H](CCCCN)C(=O)N[C@@H](Cc2ccc(O)cc2)C(=O)N[C@H](C(=O)N[C@@H](Cc2ccccc2)C(N)=O)C(C)C)NC(=O)[C@H](Cc2c[nH]c4ccccc24)NC(=O)[C@H](CCCCN)NC(=O)[C@H](Cc2c[nH]cn2)NC(=O)[C@H]([C@@H](C)O)NC(=O)[C@H](CCCNC(=N)N)NC(=O)[C@H](CO)NC3=O)NC(=O)[C@H](CCCCN)NC(=O)[C@H](CC(=O)O)NC(=O)[C@H](CC(N)=O)NC(=O)[C@H]([C@@H](C)O)NC(=O)[C@@H]2CCCN2C1=O` [compound 196] (H-DCLGFMRKCIPTNDKCCRPNLVCSRTHKWCKYVF-NH2; disulfide 2-17, 9-23, 16-30) showed an IC50 (hNav1.7; Use, read-out: IWQ Use Nav1.7) of 97 nM, an IC50 (hNav1.5; IonWorks Quattro, Use, read-out: IWQ Use Nav1.5) of 7080 nM and an IC50 (hNav1.3; Use) of 74 nM.

Work on `CC[C@H](C)[C@@H]1NC(=O)[C@@H]2CSSC[C@@H]3NC(=O)[C@H](C(C)C)NC(=O)[C@H](CC(C)C)NC(=O)[C@H](CC(N)=O)NC(=O)[C@@H]4CCCN4C(=O)[C@H](CCCNC(=N)N)NC(=O)[C@H](CSSC[C@H](NC(=O)[C@H](CC(=O)O)NC(=O)[C@@H](N)CCCCN)C(=O)N[C@@H](CC(C)C)C(=O)NCC(=O)N[C@@H](Cc4ccccc4)C(=O)N[C@@H](CCSC)C(=O)N[C@@H](CCCNC(=N)N)C(=O)N[C@@H](CCCCN)C(=O)N2)NC(=O)[C@H](CSSC[C@@H](C(=O)N[C@@H](CCCCN)C(=O)N[C@@H](Cc2ccc(O)cc2)C(=O)N[C@H](C(=O)N[C@@H](Cc2ccccc2)C(N)=O)C(C)C)NC(=O)[C@H](Cc2c[nH]c4ccccc24)NC(=O)[C@H](CCCCN)NC(=O)[C@H](Cc2cnc[nH]2)NC(=O)[C@H]([C@@H](C)O)NC(=O)[C@H](CCCNC(=N)N)NC(=O)[C@H](CO)NC3=O)NC(=O)[C@H](CCCCN)NC(=O)[C@H](CC(=O)O)NC(=O)[C@H](CC(N)=O)NC(=O)[C@H](CC(=O)O)NC(=O)[C@@H]2CCCN2C1=O` [SEQ ID NO: 36] yielded an IC50 (hNav1.7; [4]) of 110 nM, an IC50 (hNav1.5; IonWorks Quattro, clamped to −110 mV, depolarized to −10 mV, 5 min after compound, n=2, read-out: IWQ Use Nav1.5) of 8350 nM and an IC50 (hNav1.3; [5]) of 100 nM.

Work on `CC[C@H](C)[C@@H]1NC(=O)[C@@H]2CSSC[C@@H]3NC(=O)[C@H](C(C)C)NC(=O)[C@H](CC(C)C)NC(=O)[C@H](CC(N)=O)NC(=O)[C@@H]4CCCN4C(=O)[C@H](CCCNC(=N)N)NC(=O)[C@H](CSSC[C@H](NC(=O)[C@@H](N)CC(=O)O)C(=O)N[C@@H](CC(C)C)C(=O)NCC(=O)N[C@@H](Cc4ccccc4)C(=O)N[C@@H](CCSC)C(=O)N[C@@H](CCCNC(=N)N)C(=O)N[C@@H](CCCCN)C(=O)N2)NC(=O)[C@H](CSSC[C@@H](C(=O)N[C@@H](CCCCN)C(=O)N[C@@H](CCC(N)=O)C(=O)N[C@H](C(=O)N[C@@H](Cc2ccccc2)C(N)=O)C(C)C)NC(=O)[C@H](Cc2c[nH]c4ccccc24)NC(=O)[C@H](CCCCN)NC(=O)[C@H](Cc2c[nH]cn2)NC(=O)[C@H]([C@@H](C)O)NC(=O)[C@H](CCCNC(=N)N)NC(=O)[C@H](CO)NC3=O)NC(=O)[C@H](CCCCN)NC(=O)[C@H](CC(=O)O)NC(=O)[C@H](CC(N)=O)NC(=O)[C@H](CC(=O)O)NC(=O)[C@@H]2CCCN2C1=O` [compound 366] (H-DCLGFMRKCIPDNDKCCRPNLVCSRTHKWCKQVF-NH2; disulfide 2-17, 9-23, 16-30) yielded an IC50 (hNav1.7; Table 25, use, […], read-out: IWQ Use Nav1.7) of 4870 nM, an IC50 (hNav1.5; Table 25, IonWorks Quattro, use, […], read-out: IWQ Use Nav1.5) of 21000 nM and an IC50 (hNav1.3; Table 25, use, […]) of 2390 nM.
